The assay addresses T1, LXRβ (Homo sapiens, UniProt P55055).
T1 construct: Co-transfection expression plasmids, comprising full-length LXRα (pCMX-h LXRα[…] or LXRβ (pCMX-hLXRβ)); expressed in transfected cells; host or cells: CV-1 African Green Monkey Kidney Cells
T1 sequence (P55055 1-460): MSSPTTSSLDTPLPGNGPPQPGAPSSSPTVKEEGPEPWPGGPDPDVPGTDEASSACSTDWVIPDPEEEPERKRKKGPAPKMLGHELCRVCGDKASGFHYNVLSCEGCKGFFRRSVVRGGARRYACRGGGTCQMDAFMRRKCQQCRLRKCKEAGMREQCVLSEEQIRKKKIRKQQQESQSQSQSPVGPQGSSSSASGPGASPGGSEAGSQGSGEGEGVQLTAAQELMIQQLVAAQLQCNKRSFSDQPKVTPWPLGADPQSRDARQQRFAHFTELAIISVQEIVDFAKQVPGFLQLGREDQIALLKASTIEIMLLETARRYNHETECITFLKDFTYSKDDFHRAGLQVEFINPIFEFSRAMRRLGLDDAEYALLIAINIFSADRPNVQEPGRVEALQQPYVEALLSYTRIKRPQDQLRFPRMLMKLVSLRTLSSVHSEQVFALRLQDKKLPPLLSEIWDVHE
T1 sequence (P19793 1-462 partner): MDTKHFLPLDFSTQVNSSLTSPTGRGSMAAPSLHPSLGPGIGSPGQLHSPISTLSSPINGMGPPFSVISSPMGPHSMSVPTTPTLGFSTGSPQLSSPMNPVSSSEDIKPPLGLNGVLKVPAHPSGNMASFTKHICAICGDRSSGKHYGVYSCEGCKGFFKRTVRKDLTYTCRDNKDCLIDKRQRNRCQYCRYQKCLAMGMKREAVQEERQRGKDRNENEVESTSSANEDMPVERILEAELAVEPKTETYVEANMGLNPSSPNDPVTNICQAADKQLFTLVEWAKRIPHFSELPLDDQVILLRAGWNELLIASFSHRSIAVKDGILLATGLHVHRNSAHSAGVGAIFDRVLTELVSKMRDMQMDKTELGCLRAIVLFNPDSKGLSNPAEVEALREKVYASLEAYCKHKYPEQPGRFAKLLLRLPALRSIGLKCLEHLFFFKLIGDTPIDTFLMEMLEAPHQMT
Put plainly: Co-transfection assay (LXRE luciferase reporter), LXRβ. As to conditions: for EC50: CV-1 cells transfected with pCMX-hLXRβ and LXREx1-Tk-Luciferase, 20 hours incubation; for Emax: LXRβ co-transfection, relative to high control 1-(2,4-difluorobenzyl)-2-oxo-6-(4-phenoxyphenyl)-4-(trifluoromethyl)-1,2-dihydropyridine-3-carbonitrile, read-out: % Efficacy. The format is cell-based. From the text:
To measure the ability of compounds to activate or inhibit the transcriptional activity of LXR in a cell based assay, the co-transfection assay was used. It has been shown that LXR functions as a heterodimer with RXR. For the co-transfection assay, expression plasmids for LXRα and LXRβ are introduced separately via transient transfection into mammalian cells along with a luciferase reporter plasmid that contains one copy of a DNA sequence that is bound by LXR-RXR heterodimers (LXRE; Willy, P. et. al. 1995). LXRs heterodimerize with the endogenous RXR. Treatment of transfected cells with an LXR agonist increases the transcriptional activity of LXR, which is measured by an increase in luciferase activity.
CV-1 African Green Monkey Kidney Cells
Co-transfection expression plasmids, comprising full-length LXRα (pCMX-h LXRα[…] or LXRβ (pCMX-hLXRβ), reporter plasmid (LXREx1-Tk-Luciferase), and control (pCMX-Galactosidase expression vector) (Willey et al. Genes & Development 9 1033-1045 (1995)).
CV-1 cells were prepared 24 hours prior to the experiment by plating them into T-175 flasks or 500 cm^2 dishes in order to achieve 70-80% confluency on the day of the transfection. The number of cells to be transfected was determined by the number of plates to be screened. Each well of a 384 well plate requires 1.5×10^4 cells. DNA Transfection Reagent was prepared by mixing the required plasmid DNAs with a cationic lipid transfection reagent Transit 2020 (Mirus Bio) for CV1 by following the instructions provided with the reagents. Optimal DNA amounts were determined empirically per cell line and size of vessel to be transfected. For each T175 cm^2 flask a total of 59 ug for CV1 of DNA, 133 uL Transit2020 and 4.5 mL DMEM for CV1 was mixed and added. Cells were then incubated at least 5 hours at 37° C. to prepare screening cells.
Luciferase assay reagent (*Steady-Glo Luciferase Assay System by Promega, CAT#E2550) was prepared by combining before use:
Assay plates were prepared by dispensing 5 μL of compound per well of a 384 well plate to achieve final compound concentration of 10 μM and no more than 0.5% DMSO. Media was removed from the screening cells, the cells trypsinized, harvested cells by centrifugation, counted, and plated at a density of approximately 1.5×10^4 cells in the 384 well assay plate prepared above in a volume of about 95 uL. Assay plates containing both compounds and screening cells (100 μL in total volume) were incubated for 20 hours at 37° C.
After incubation with compounds, media was removed from the cells and luciferase assay reagent (50 μL/well) added. After ˜2 minutes at ambient temperature, the assay plates were read on a luminometer (PE Biosystems Northstar reader with on-board injectors, or Envision(Perkin Elmer) or equivalent).
The LXR/LXRE co-transfection assay can be used to establish the EC50/IC50 values for potency and percent activity or inhibition for efficacy. Efficacy defines the activity of a compound relative to a high control 1-(2,4-difluorobenzyl)-2-oxo-6-(4-phenoxyphenyl)-4-(trifluoromethyl)-1,2-dihydropyridine-3-carbonitrileor a low control (DMSO/vehicle). The dose response curves are generated from a 11 point curve with concentrations differing by ½ LOG units. Each point represents the average of 2 wells of data from duplicate 384 well plate.
The data from this assay is fitted to the following equation, from which the EC50 value may be solved: Y=Bottom+(Top−Bottom)/(1+10^((logEC50-X)*HillSlope)).
The EC50/IC50 is therefore defined as the concentration at which an agonist or antagonist elicits a response that is halfway between the Top (maximum) and Bottom (baseline) values. The EC50/IC50 values represented are the averages of at least 2 and normally 3 independent experiments. […]

As usually defined, the EC50 is the concentration giving half of the maximal effect. Higher therefore signals weaker potency.

On to `Cc1nc(C(F)(F)F)cn1-c1ccc(-c2cccc(S(C)(=O)=O)c2)cc1-n1nncc1C(=O)c1ccc(Cl)cc1` [Example 10, (4-chlorophenyl)(1-{3′-(methylsulfonyl)-4-[2-methyl-4-(trifluoromethyl)-1H-imidazol-1-yl]biphenyl-3-yl}-1H-1,2,3-triazol-5-yl)methanone], for which the EC50 came out at 0.541 µM and the Emax turned out to be 62%.
As for `Cc1nc(C(F)(F)F)cn1-c1ccc(-c2cccc(S(C)(=O)=O)c2)cc1-n1nncc1C(O)(c1ccc(Cl)cc1)C(F)(F)F` (stereo not shown) [Example 11, 1-(4-chlorophenyl)-2,2,2-trifluoro-1-(1-{3′-(methylsulfonyl)-4-[2-methyl-4-(trifluoromethyl)-1H-imidazol-1-yl]biphenyl-3-yl}-1H-1,2,3-triazol-5-yl) ethanol], a half-maximal effect (EC50) was put at 0.332 µM and the Emax is 79%.
On to `Cc1nc(C(F)(F)F)cn1-c1ccc(-c2cccc(S(C)(=O)=O)c2)cc1-n1nncc1C(F)(F)c1ccc(Cl)cc1` [Example 12, 5-[(4-chlorophenyl) (difluoro)methyl]-1-{3′-(methylsulfonyl)-4-[2-methyl-4-(trifluoromethyl)-1H-imidazol-1-yl]biphenyl-3-yl}-1H-1,2,3-triazole], for which the EC50 was determined as 0.133 µM and the Emax worked out at 62%.
With `CS(=O)(=O)c1cccc(-c2ccc(-n3cnc(C(F)(F)F)c3)c(-n3nncc3-c3ccc(Cl)cc3)c2)c1` [Example 13, 5-(4-chlorophenyl)-1-{3′-(methylsulfonyl)-4-[4-(trifluoromethyl)-1H-imidazol-1-yl]biphenyl-3-yl}-1H-1,2,3-triazole], the EC50 amounted to 0.957 µM and the Emax was determined as 74%.
With `Cc1nc(C(F)(F)F)cn1-c1ccc(-c2cc(Cl)c(CO)c(S(C)(=O)=O)c2)cc1-n1nncc1-c1ccc(Cl)cc1Cl` [Example 18, {3-chloro-3′-[5-(2,4-dichlorophenyl)-1H-1,2,3-triazol-1-yl]-5-(methylsulfonyl)-4′-[2-methyl-4-(trifluoromethyl)-1H-imidazol-1-yl]biphenyl-4-yl}methanol], the 50% effective concentration (EC50) was 0.283 µM and the Emax was 62%.
For the molecule `CS(=O)(=O)c1cccc(-c2ccc(-n3cnc(C(F)(F)F)c3)c(-n3nncc3-c3ccc(Cl)cc3Cl)c2)c1` [Example 19, 5-(2,4-dichlorophenyl)-1-{3′-(methylsulfonyl)-4-[4-(trifluoromethyl)-1H-imidazol-1-yl]biphenyl-3-yl}-1H-1,2,3-triazole], the response was half-maximal at 1.07 µM (EC50) and the Emax stood at 80%.
On to `Cc1cc(-c2cnnn2-c2cc(-c3cccc(S(C)(=O)=O)c3)ccc2-n2cc(C(F)(F)F)nc2C)ccc1OC(F)(F)F` [Example 20, 1-{3′-(methylsulfonyl)-4-[2-methyl-4-(trifluoromethyl)-1H-imidazol-1-yl]biphenyl-3-yl}-5-{3-methyl-4-[(trifluoromethyl)oxy]phenyl}-1H-1,2,3-triazole], for which the half-maximal effective concentration (EC50) came to 0.13 µM and the Emax was determined as 93%.
`Cc1nc(C(F)(F)F)cn1-c1ccc(-c2cc(Cl)c(CO)c(S(C)(=O)=O)c2)cc1-n1nncc1-c1ccc2c(c1)OC(F)(F)O2` [Example 21, {3-chloro-3′-[5-(2,2-difluoro-1,3-benzodioxol-5-yl)-1H-1,2,3-triazol-1-yl]-5-(methylsulfonyl)-4′-[2-methyl-4-(trifluoromethyl)-1H-imidazol-1-yl]biphenyl-4-yl}methanol]: the concentration for a half-maximal effect (EC50) came to 0.502 µM and the Emax was determined as 65%.
`Cc1nc(C(F)(F)F)cn1-c1ccc(-c2cccc(S(C)(=O)=O)c2)cc1-n1nncc1-c1ccc(N(C)C)cc1` [Example 22, N,N-dimethyl-4-(1-{3′-(methylsulfonyl)-4-[2-methyl-4-(trifluoromethyl)-1H-imidazol-1-yl]biphenyl-3-yl}-1H-1,2,3-triazol-5-yl)aniline]: a half-maximal response (EC50) required 0.113 µM and the Emax is 99%.
The matching figures for `Cc1nc(C(F)(F)F)cn1-c1ccc(-c2cccc(S(C)(=O)=O)c2)cc1-n1nncc1-c1ccc(OC(F)(F)C(F)F)cc1` [Example 23, 1-{3′-(methylsulfonyl)-4-[2-methyl-4-(trifluoromethyl)-1H-imidazol-1-yl]biphenyl-3-yl}-5-{4-[(1,1,2,2-tetrafluoroethyl)oxy]phenyl}-1H-1,2,3-triazole]: 0.507 µM and 101%.
For `COc1ccc(-c2cnnn2-c2cc(-c3cccc(S(C)(=O)=O)c3)ccc2-n2cc(C(F)(F)F)nc2C)c(C)c1` [Example 24, 5-[2-methyl-4-(methyloxy)phenyl]-1-{3′-(methylsulfonyl)-4-[2-methyl-4-(trifluoromethyl)-1H-imidazol-1-yl]biphenyl-3-yl}-1H-1,2,3-triazole], the response was half-maximal at 0.512 µM (EC50) and the Emax was 90%.
For `Cc1nc(C(F)(F)F)cn1-c1ccc(-c2cccc(S(C)(=O)=O)c2)cc1-n1nncc1-c1cccc(C(F)(F)F)c1` [Example 25, 1-{3′-(methylsulfonyl)-4-[2-methyl-4-(trifluoromethyl)-1H-imidazol-1-yl]biphenyl-3-yl}-5-[3-(trifluoromethyl)phenyl]-1H-1,2,3-triazole], a half-maximal effect (EC50) was put at 0.529 µM and the Emax was 116%.
In the case of `COc1ccc(-c2cnnn2-c2cc(-c3cccc(S(C)(=O)=O)c3)ccc2-n2cc(C(F)(F)F)nc2C)cc1` [Example 26, 5-[4-(methyloxy)phenyl]-1-{3′-(methylsulfonyl)-4-[2-methyl-4-(trifluoromethyl)-1H-imidazol-1-yl]biphenyl-3-yl}-1H-1,2,3-triazole], a half-maximal effect (EC50) was put at 0.541 µM and the Emax turned out to be 93%.
Turning to `Cc1nc(C(F)(F)F)cn1-c1ccc(-c2cccc(C(C)(C)C(N)=O)c2)cc1-n1nncc1-c1ccc(OC(F)(F)F)cc1` [Example 27, 2-methyl-2-{4′-[2-methyl-4-(trifluoromethyl)-1H-imidazol-1-yl]-3′-(5-{4-[(trifluoromethyl)oxy]phenyl}-1H-1,2,3-triazol-1-yl)biphenyl-3-yl}propanamide], the EC50 was 0.561 µM and the Emax was 83%.
